From patent EP3463364B1, “PYRAZINE DERIVATIVES FOR USE IN THE TREATMENT OF DISEASES ASSOCIATED WITH CELL CYCLE DYSREGULATION” (University of Patras, priority 2016, dated 2017)

How the values were obtained:
[1] = molecular target: T1, Geminin-miniCdt1 protein interaction (Homo sapiens, UniProt O75496+Q9H211); experiment: Surface plasmon resonance (SPR): inhibition of Geminin binding to immobilized miniCdt1
T1 construct: corresponds to the amino acid region 158-396 of the human Cdtl protein; Concentrations series of the full-length Geminin and the synthetic chemical compound were simultaneously injected
T1 sequence (Q9H211 158-396): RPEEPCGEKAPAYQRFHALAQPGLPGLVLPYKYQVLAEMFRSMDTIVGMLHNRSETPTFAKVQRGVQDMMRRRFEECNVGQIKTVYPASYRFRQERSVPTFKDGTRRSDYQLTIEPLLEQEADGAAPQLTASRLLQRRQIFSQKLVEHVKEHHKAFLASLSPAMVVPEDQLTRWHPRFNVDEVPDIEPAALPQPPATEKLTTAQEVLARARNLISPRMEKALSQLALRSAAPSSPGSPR
T1 sequence (O75496 1-209): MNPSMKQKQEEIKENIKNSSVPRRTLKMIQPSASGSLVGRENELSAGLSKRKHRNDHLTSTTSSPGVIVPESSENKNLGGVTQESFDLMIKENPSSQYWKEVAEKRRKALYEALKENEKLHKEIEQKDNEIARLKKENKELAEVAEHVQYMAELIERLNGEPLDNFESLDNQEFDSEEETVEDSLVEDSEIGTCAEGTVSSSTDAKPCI
Description: Surface plasmon resonance analysis was performed in order to determine in a quantitative manner the ability of the synthetic compound AF-615/30368009 (compound number 1 in Tables A and B, and Fig. 1) to inhibit the binding of Geminin to the protein miniCdt1 (which corresponds to the amino acid region 158-396 of the human Cdtl protein), by calculating the inhibition constant (KI).
Surface plasmon resonance spectroscopy (SPR) was performed at 25°C, using a Biosensor Biacore instrument (Biacore T100). About 6,000 RU of miniCdt1 protein were immobilized on a CMS Chip (Biacore) at pH 5.5, using amino coupling of Lysine residues. Concentrations series of the full-length Geminin and the synthetic chemical compound were simultaneously injected across the chip in a buffer containing 20 mM Hepes pH 7.5, 200 mM NaCl, 0.01% Tween 20 at a flow rate of 30µl/min. The concentrations used were 12, 36, 107, 322, 966nM for Geminin and 10 µM, 100µM, 1000µM for the compound. The injection of samples was carried out in the presence of 20% DMSO, to ensure high solubility.
In the graphs of Fig. 2, the x axis represents the different concentrations of Geminin (nM), while the y-axis the binding levels in RU (Response Units). […] The results in Fig. 2 indicate the specificity of the in vitro inhibitory effect of the synthetic chemical compound AF-615/30368009 on the Geminin-miniCdt1 protein interaction.

[2] = system: MCF7 cancer cells; experiment: Cell cycle progression by propidium iodide flow cytometry, cancer cells; assay type: cell-based; conditions: 100 µM, 23hrs
Description: (§1) Since the proteins Geminin and Cdtl are key regulators of the cell cycle, the effect of the synthetic compound on the development of the cancer cell and normal cell cycle was studied. Staining of the genetic material of the cells was performed with propidium iodide and the technique of flow cytometry was applied for their separation, based on the amount of genetic material.
(§2) MCF7 cells were used as cancer cells, whereas primary cells and particularly embryonic mouse fibroblasts (Mouse Embryonic Fibroblasts, MEFs) were used as normal cells. The cells were incubated with the synthetic chemical compound AF-615/30368009 at a concentration of 100 µM and cultured for 23hrs in 100-mm dishes, to 80% confluency. Cells which had been incubated with only DMSO were used as a negative control sample. The next day of the incubation, cells were harvested using trypsin. […] The experiments were conducted using a Becton Dickinson flow cytometer and the data were analyzed by the WinMDi software version 2.8.
(§3) The graphs shown in Fig. 5 are representative of at least two independent experiments. The x axis represents the intensity of the fluorescence of propidium iodide and proportionally the amount of DNA content of the cells, while the y-axis corresponds to the number of events for each phase of the cell cycle.

[3] = system: Mouse Embryonic Fibroblasts, MEFs; experiment: Cell cycle progression by propidium iodide flow cytometry, normal (primary) cells; assay type: cell-based; conditions: 100 µM, 23hrs, compared to DMSO control (Fig. 5D vs 5C)
Description: as §1
as §2, with “2.8. […]” for “2.8.”
as §3

Ki ([1]; SPR at 25°C, Geminin 12-966nM, compound 10-1000µM, 20% DMSO, estimated value, read-out: inhibition constant (KI)): 750 ± 190 µM
SMILES: O=C(NNC(=S)N1CCOCC1)c1cnccn1 [AF-615/30368009, N'-(morpholine-4-carbothioyl)pyrazine-2-carbohydrazide]
inhibition of Geminin binding to miniCdt1 ([1]; compound at 1000 µM, SPR binding curves (Fig. 2)): exhibits inhibition of Geminin binding to miniCdt1
percentage (%) of cells in G0/G1 and S phases ([2]; MCF7, compared to DMSO control (Fig. 5B vs 5A)): significant increase
population of cells corresponding to the G2/M phase of the cell cycle ([2]; MCF7, in comparison to DMSO control (Fig. 5B vs 5A)): extremely limited
percentage of cells in G2/M phase [3]: mild reduction
percentage of cells in phase G0/G1 and S [3]: no significant change
